Key:
E. coli strain WO-153 = test: Genome-wide E. coli ORFmer overexpression rescue (OER) assay; format: cell-based; conditions: for PCR verification of OER clones: expected target gene: liquid microtiter assay, expected targets folA, murA, fabI; for PCR verification of OER clones: expected clone: two plate assay format (disk diffusion, gradient plate)
Description: Over expression Rescue Assays. Over expression assays were conducted with the E. coli strain WO-153 described in Table 7. Construction of WO-0153. […] The asmB1 mutation is a G to A transition at position 628 in the 1pxC gene. […] The tolC gene encodes an outer membrane protein that acts as a channel for the acrAB efflux pumps (See for example, Fralick, J. 1996. J. Bacteriol. 178:5801-5805). […] WO-0153 was constructed as follows. The asmB1 mutation was introduced into a DNA fragment containing the 1pxC gene and 1 kb of the 5′ end of the secA gene by site directed mutagenesis of the 1pxC gene using standard methods. A kan^R resistance cassette flanked by FRT sites was introduced 60 bp downstream of the 1pxC gene. The linear DNA construct was introduced into electrocompetent and recombinogenic E. coli KM354 (pTP223) as described by Murphy (See for example, Murphy, 1998, J. Bacteriol. 180: 2063-71). Transformants were selected on LB agar containing kanamycin (35 mcg/ml) and screened for sensitivity to novobiocin (20 mcg/ml). The presence of the asmB1 mutation in clones with the expected phenotype was verified by DNA sequence analysis. The kanR gene flanked by FRT sites was then excised from the 1pxC-secA intergenic region using a previously described method (See for example, Cherepanove, P. P, and Wackernagel, W. 1995. Gene 158: 9-14.). […] 178:5138-5143; Fralick, J. (1996). J. Bacteriol. 178:5801-5805; Fralick, J. A., et al. (1994) J. Bacteriol. 176:6404-6406; and Cherepanove, P. P, et al., (1995) Gene 158:9-14. […] Plasmid library DNA was transformed into WO-153 by electroporation as described above. Cells were collected from transformation plates by scraping and were equalized to an optical density of 1.53 on a Beckman DU650 spectrophotometer([…]). Groups of five libraries were mixed and frozen in LB media plus 10% (vol/vol) glycerol by immersion in a dry-ice/ethanol bath for 5 minutes.
Over-expression assays were performed in liquid media in a microtiter format, in a gradient plate format, or in a disk-diffusion format. The protocol used for the microtiter format was similar to the protocol described above for the MIC assay. Aliquots of 5 library pools spanning the genome were thawed at room temperature and 200 ul of each was inoculated into its own 20 ml of Mueller Hinton media containing ampicillin at 200 ug/ml and anhydrous tetracycline inducer as appropriate. Typically, replicates were performed using a number of final inducer concentrations, ranging from 0 to 100 ng/ml. Following an adequate mixing, 50 ul of inoculated media was mixed with 50 ul of the test antibiotic in Nunc brand 96-well microtiterplates. Typically, each group of five libraries was mixed with a range of concentrations of antibiotic spanning the minimum inhibitory concentration (MIC) of the antibiotic. […] Columns may contain 10 different groups of libraries as well as null vector and no innoculum controls. After mixing inoculum plus media with antibiotic, well contents were mixed by pipetting and incubated at 37° C. for 16 to 20 hours. Optical density at 600 nm was measured using a Molecular Devices SpectraMAX 250 spectrophotometer. […] Contents of wells showing rescue were transferred to LB agar plates containing ampicillin at 100 ug/ml, and were spread to obtain single colonies. Alternately, it is possible to maintain selection for the antibiotic being assayed by including it in the agar plates at this point.
OER Assay using Disk diffusion and Gradient Plate Assay formats. In the Disk diffusion plate format, the 3 inocula (see below) were plated on MHB plates containing ampicillin (100 mcg/ml) and anhydrous tetracycline (a-tet, 100 ng/ml). Two paper disks (6 mm diameter) containing 10×and 20×MIC of the test antiobiotic were placed on the surface of the plate.

[1] = test system: cells in which murA is regulated by PBAD; test: MIC by microbroth dilution in E. coli under-expressing murA; format: cell-based; conditions: for MIC with decreasing regulator (L-arabinose) level: FIG. 4; for sensitivity on under-expression of murA: FIG. 6
Description: The wild-type gene murA, which encodes the enzyme UDP-N-acetylglucosamine enolpyruvate transferase, was knocked out in E. coli, and the gene was placed under ectopic expression in the yibD locus under regulation by PBAD with the regulator, L-arabinose.
Methods. […] IPTG was added to a final concentration of 0.1 mM and anhydrous-tetracycline was added to a final concentration of 100 ng/ml to the culture media for routine growth of GTC-EC#313 and GTC-EC#346, respectively.
The specificity and sensitivity of the resultant colonies to added drugs were followed by measuring the minimal inhibitory concentration (MIC) of trimethoprim, sulfamethozasone, phosphomycin and D-cycloserine at varying regulator levels. This was performed according to NCCLS (National Center for Clinical Laboratory Standards) recommendations(NCCLS, 1997, METHODS FOR DILUTION ANTIMICROBIAL SUSCEPTIBILITY TESTS FOR BACTERIA THAT GROW AEROBICALLY, 4th ed.; approved standard. NCCLS document M7-A4. NCCLS, Wayne, Pa.), in 100 μl volume in 96-well format, with serial two-fold dilutions of drug concentration.

| SMILES | PCR verification of OER clones: expected target gene (E. coli strain WO-153) | PCR verification of OER clones: expected clone (E. coli strain WO-153) | MIC with decreasing regulator (L-arabinose) level [1] | sensitivity on under-expression of murA [1] |
| --- | --- | --- | --- | --- |
| COc1cc(Cc2cnc(N)nc2N)cc(OC)c1OC [trimethoprim] | expected target gene was identifed | expected clone was isolated | relatively unchanged | not sensitive |
| C[C@@H]1O[C@@H]1P(=O)(O)O [phosphomycin] | expected target gene was identifed | expected clone was isolated | decreases | hypersensitivity |
